Experimental data reported in patent US20180064742A1, “PET IMAGING TRACER FOR IMAGING PROSTATE CANCER” (THE REGENTS OF THE UNIVERSITY OF CALIFORNIA, priority 2015, published 2018).

System: tumors
Experiment: In vivo accumulation in tumors versus benign tissue, with tumor alkalinization models
Text: Solid tumors are hypoxic with altered metabolism, resulting in secretion of acids into the extracellular matrix and lower relative pH, a feature associated with local invasion and metastasis. Therapeutic and diagnostic agents responsive to this microenvironment may improve tumor-specific delivery. In various embodiments, the invention reflects a general strategy whereby caged small-molecule drugs or imaging agents liberate their parent compounds in regions of low interstitial pH. In this manuscript, we present a new acid-labile prodrug method based on the glycosylamine linkage, and its application to a class of positron emission tomography (PET) imaging tracers, termed [^18F] fluorodeoxyglycosyl amines ([^18F] FDG amines). [^18F]FDG amines operate via a proposed two-step mechanism, in which an acid-labile precursor decomposes to form a common radiotracer, e.g., 2-deoxy-2-[18F]fluoro-D-glucose, which is subsequently accumulated by glycan, e.g., glucose, avid cells. […]
Imaging was performed using standard micro-positron emission tomography (microPET) techniques and data analysis. […] The resulting images are analyzed using open source Amide software (FIGS. 6, 13). For quantification of uptake in tissues, regions of interest (ROI) are drawn over tissues using the CT portion of the exam. […]

## OC[C@H]1OC(NCc2ccc(-c3ccccc3)cc2)[C@H]([18F])[C@@H](O)[C@@H]1O (some centres unmarked)
In vivo
  relative accumulation in tumors over benign tissue: greater relative accumulation in tumors over benign tissue
Sodium bicarbonate treatment, or overexpression of carbonic anhydrase
  effect of tumor alkalinization on tumor accumulation: could be attenuated upon tumor alkalinization
